According to patent US8350079B2, “Treprostinil formulation” (United Therapeutics Corporation, priority 2008, dated 2013):

Assay: Accelerated stability of treprostinil monohydrate at 25, 30 and 40° C. (Lot #01M07033)
Type: physicochemical
Experimental: III. Accelerated Stability Data at 30 and 40° C. (Lot #01M07033).
In the present experiment, 500 mg Treprostinil monohydrate samples were stored in Nalgene 125 ml, HDPE bottles. The experimental procedure used in this experiment was the same as the described above procedure for lot D-1007-089.

CCCCC[C@H](O)CC[C@@H]1[C@H]2Cc3cccc(OCC(=O)O)c3C[C@H]2C[C@H]1O [TREPROSTINIL Lot# D-1007-089, treprostinil monohydrate]
3AU90 (3-Months, 25° C./60% RH): <0.05% | 750W93 (3-Months, 25° C./60% RH): 0.07% | 751W93 (3-Months, 25° C./60% RH): <0.05% | Impurity 1 (RRT: 0.58) (3-Months, 25° C./60% RH): 0.05% | Total impurities (3-Months, 25° C./60% RH): 0.4% | UT-15 Assay (3-Months, 25° C./60% RH): 99.5% | UT-15 Ethyl Ester (3-Months, 25° C./60% RH): 0.2% | Water, KF (3-Months, 25° C./60% RH): 4.8% | 3AU90 (3-Months, 30° C./65% RH): <0.05% | 750W93 (3-Months, 30° C./65% RH): 0.07% | 751W93 (3-Months, 30° C./65% RH): <0.05% | Impurity 1 (RRT: 0.58) (3-Months, 30° C./65% RH): 0.05% | Total impurities (3-Months, 30° C./65% RH): 0.4% | UT-15 Assay (3-Months, 30° C./65% RH): 99.5% | UT-15 Ethyl Ester (3-Months, 30° C./65% RH): 0.2% | Water, KF (3-Months, 30° C./65% RH): 4.8% | 3AU90 (3-Months, 40 C./75% RH): <0.05% | 750W93 (3-Months, 40 C./75% RH): 0.08% | 751W93 (3-Months, 40 C./75% RH): <0.05% | Impurity 1 (RRT: 0.58) (3-Months, 40 C./75% RH): 0.05% | Total impurities (3-Months, 40 C./75% RH): 0.4% | UT-15 Assay (3-Months, 40 C./75% RH): 99.4% | UT-15 Ethyl Ester (3-Months, 40 C./75% RH): 0.2% | Water, KF (3-Months, 40 C./75% RH): 4.8% | 3AU90 (6-Months, 25° C./60% RH): 0.06% | 750W93 (6-Months, 25° C./60% RH): 0.07% | 751W93 (6-Months, 25° C./60% RH): <0.05% | Total impurities (6-Months, 25° C./60% RH): 0.4% | UT-15 Assay (6-Months, 25° C./60% RH): 99.0% | UT-15 Ethyl Ester (6-Months, 25° C./60% RH): 0.2% | Water, KF (6-Months, 25° C./60% RH): 4.7% | 3AU90 (6-Months, 30° C./65% RH): 0.06% | 750W93 (6-Months, 30° C./65% RH): 0.07% | 751W93 (6-Months, 30° C./65% RH): <0.05% | Total impurities (6-Months, 30° C./65% RH): 0.4% | UT-15 Assay (6-Months, 30° C./65% RH): 99.1% | UT-15 Ethyl Ester (6-Months, 30° C./65% RH): 0.2% | Water, KF (6-Months, 30° C./65% RH): 4.7% | 3AU90 (6-Months, 40 C./75% RH): 0.07% | 750W93 (6-Months, 40 C./75% RH): 0.09% | 751W93 (6-Months, 40 C./75% RH): 0.05% | Total impurities (6-Months, 40 C./75% RH): 0.4% | UT-15 Assay (6-Months, 40 C./75% RH): 99.7% | UT-15 Ethyl Ester (6-Months, 40 C./75% RH): 0.2% | Water, KF (6-Months, 40 C./75% RH): 4.7% | 3AU90 (12-Months, 25° C./60% RH): <0.05% | 750W93 (12-Months, 25° C./60% RH): 0.08% | 751W93 (12-Months, 25° C./60% RH): <0.05% | Impurity 1 (RRT: 0.58) (12-Months, 25° C./60% RH): 0.06% | Total impurities (12-Months, 25° C./60% RH): 0.4% | UT-15 Assay (12-Months, 25° C./60% RH): 99.8% | UT-15 Ethyl Ester (12-Months, 25° C./60% RH): 0.2% | Water, KF (12-Months, 25° C./60% RH): 4.7% | 3AU90 (12-Months, 40 C./75% RH): <0.05% | 750W93 (12-Months, 40 C./75% RH): 0.09% | 751W93 (12-Months, 40 C./75% RH): 0.05% | Impurity 1 (RRT: 0.58) (12-Months, 40 C./75% RH): 0.05% | Total impurities (12-Months, 40 C./75% RH): 0.4% | UT-15 Assay (12-Months, 40 C./75% RH): 98.6% | UT-15 Ethyl Ester (12-Months, 40 C./75% RH): 0.2% | Water, KF (12-Months, 40 C./75% RH): 4.8% | 3AU90 (Initial): 0.1% | 750W93 (Initial): 0.08% | 751W93 (Initial): <0.05% | Total impurities (Initial): 0.4% | UT-15 Assay (Initial): 98.7% | UT-15 Ethyl Ester (Initial): 0.2% | Water, KF (Initial): 4.5%
